Earlier results, collected in EP0759941B1, “HETERODIMER POLYPEPTIDEIMMUNOGEN CARRIER COMPOSITION AND METHOD FOR THEIR USE” (S.P.I. SYNTHETIC PEPTIDES INCORPORATED, priority 1994, dated 1995).

System: primed (human) donors
Details: recognized by all primed (human) donors; cited from earlier work

Row | Substance | immunogenicity (recognition by primed donors irrespective of MHC haplotypes)
1 | TT3: tetanus toxoid residues 947-967; SEQ ID NO:14 (FNNFTVSFWLRVPKVSASHLE; UniProt P04958 947-967, looked up, fragment) | universally immunogenic
2 | TT2: tetanus toxoid residues 830-846; SEQ ID NO:12; T-cell antigen (QYIKANSKFIGITELKK; UniProt P04958 830-846, looked up, fragment) [tetanus toxoid residues 830-846; T-cell antigen] | universally immunogenic
